Measurements as given in ChEMBL document CHEMBL5325439, “Application of an "inhalation by design" approach to the identification and in-vitro evaluation of novel purine based PI3Kδ inhibitors” (Eur J Med Chem, 2023).
Converted amounts (≈) assume the structure as drawn. The source made the active and inactive calls. No cut-off for these calls is given here.

Tests used:
[1] = target: Phosphatidylinositol 4,5-bisphosphate 3-kinase catalytic subunit gamma isoform (Homo sapiens, UniProt P48736); assay: Inhibition of recombinant human PI3Kgamma using l-a-phosphatidylinositol sodium salt and l-a-phosphatidyl-L-serine as substrate incubated for 60 mins in presence of ATP by ADP-glo kinase assay
[2] = Inhibition of PI3Kdelta/AKT pathway in M-CSF stimulated human THP-1 cells assessed as decrease in AKT phosphorylation preincubated for 60 mins followed by M-CSF stimulation and measured after 10 mins by HTRF analysis; settings: THP-1, read-out: pIC50 (converted)
[3] = Metabolic stability in rat hepatocytes assessed as clearance measured per 10^6 cells at 0.5 uM incubated for 180 mins; format: ADME, cell-based, Hepatocyte; settings: read-out: CLH
[4] = Microsomal stability in rat liver microsomes assessed as clearance at 0.5 uM incubated for 30 mins; format: ADME, Microsome; settings: read-out: CLH
[5] = Metabolic stability in human lung S9 fraction assessed as half life measured upto 120 mins in presence of NADPH by LC-MS/MS analysis; format: ADME, subcellular
[6] = Apparent permeability across basolateral side to apical side in human Caco-2 cells by […] assay; format: ADME, cell-based
[7] = Microsomal stability in human liver microsomes assessed as clearance at 0.5 uM incubated for 30 mins; format: ADME, Microsome; settings: read-out: CLH
[8] = Protein binding in human plasma by rapidfire high-throughput MS analysis; format: ADME, cell-free; settings: read-out: PPB (converted)
[9] = target: Phosphatidylinositol 4,5-bisphosphate 3-kinase catalytic subunit beta isoform (Homo sapiens, UniProt P42338); assay: Inhibition of recombinant human PI3Kbeta using l-a-phosphatidylinositol sodium salt and l-a-phosphatidyl-L-serine as substrate incubated for 60 mins in presence of ATP by ADP-glo kinase assay
[10] = Protein binding in rat plasma by rapidfire high-throughput MS analysis; format: ADME, cell-free; settings: read-out: PPB (converted)
[11] = Protein binding in rat lung by rapidfire high-throughput MS analysis; format: ADME, tissue-based; settings: read-out: PB (converted)
[12] = Metabolic stability in human hepatocytes assessed as clearance measured per 10^6 cells at 0.5 uM incubated for 180 mins; format: ADME, cell-based, Hepatocyte; settings: read-out: CLH
HepG2 [13] = assay: Cytotoxicity against human HepG2 cells assessed as reduction in cell viability at 3 to 30 uM incubated for 48 hrs by celltiter-glo assay; format: functional, cell-based; settings: dose 3-30 µM
[14] = Kinetic solubility of compound in PBS at pH 7.4 by HPLC analysis; format: physicochemical; settings: for solubility kinetic: PBS, read-out: Kinetic_solubility; for Kinetic_solubility: buffer
[15] = target: Phosphatidylinositol 4,5-bisphosphate 3-kinase catalytic subunit alpha isoform (Homo sapiens, UniProt P42336); assay: Inhibition of recombinant human PI3Kalpha using l-a-phosphatidylinositol sodium salt and l-a-phosphatidyl-L-serine as substrate incubated for 60 mins in presence of ATP by ADP-glo kinase assay
[16] = target: T1, Phosphatidylinositol 4,5-bisphosphate 3-kinase catalytic subunit delta isoform (Homo sapiens, UniProt O00329); assay: Inhibition of recombinant human PI3Kdelta using l-a-phosphatidylinositol sodium salt and l-a-phosphatidyl-L-serine as substrate incubated for 60 mins in presence of ATP by ADP-glo kinase assay
T1 sequence (O00329 whole entry): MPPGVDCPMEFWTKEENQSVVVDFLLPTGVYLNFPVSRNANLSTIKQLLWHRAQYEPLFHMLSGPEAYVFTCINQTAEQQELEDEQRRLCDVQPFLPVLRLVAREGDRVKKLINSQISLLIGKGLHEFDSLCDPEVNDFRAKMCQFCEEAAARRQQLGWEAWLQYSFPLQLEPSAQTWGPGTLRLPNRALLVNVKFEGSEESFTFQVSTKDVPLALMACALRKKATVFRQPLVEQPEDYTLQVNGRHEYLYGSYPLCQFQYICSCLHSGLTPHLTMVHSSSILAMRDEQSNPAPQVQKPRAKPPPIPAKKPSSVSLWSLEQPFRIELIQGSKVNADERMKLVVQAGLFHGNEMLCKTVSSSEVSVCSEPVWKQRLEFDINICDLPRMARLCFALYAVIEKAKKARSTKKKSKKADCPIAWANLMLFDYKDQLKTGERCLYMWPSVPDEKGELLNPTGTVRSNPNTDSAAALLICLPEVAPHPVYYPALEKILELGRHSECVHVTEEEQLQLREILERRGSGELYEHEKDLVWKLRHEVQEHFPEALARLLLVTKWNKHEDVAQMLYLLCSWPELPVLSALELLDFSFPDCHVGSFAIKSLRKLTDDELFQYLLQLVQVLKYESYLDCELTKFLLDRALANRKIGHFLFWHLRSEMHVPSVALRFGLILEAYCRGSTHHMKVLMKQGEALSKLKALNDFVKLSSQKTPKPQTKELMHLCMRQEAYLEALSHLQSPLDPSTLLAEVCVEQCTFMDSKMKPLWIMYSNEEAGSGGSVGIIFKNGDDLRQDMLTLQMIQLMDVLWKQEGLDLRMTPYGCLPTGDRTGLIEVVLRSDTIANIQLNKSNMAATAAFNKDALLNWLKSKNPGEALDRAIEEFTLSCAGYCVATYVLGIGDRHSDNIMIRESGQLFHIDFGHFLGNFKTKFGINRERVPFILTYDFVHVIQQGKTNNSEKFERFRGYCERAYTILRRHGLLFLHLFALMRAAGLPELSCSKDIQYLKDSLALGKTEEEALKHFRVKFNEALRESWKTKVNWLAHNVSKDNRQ

[17] = Metabolic stability in rat lung S9 fraction assessed as half life measured upto 120 mins in presence of NADPH by LC-MS/MS analysis; format: ADME, subcellular
HepG2 [18] = assay: Cytotoxicity against human HepG2 cells assessed as reduction in cell viability at 10 to 30 uM incubated for 48 hrs by celltiter-glo assay; format: functional, cell-based; settings: dose 10-30 µM
THP-1 = settings: Homo sapiens, time 70.0 min

Sequence of Phosphatidylinositol 4,5-bisphosphate 3-kinase catalytic subunit beta isoform (P42338 whole entry, canonical isoform): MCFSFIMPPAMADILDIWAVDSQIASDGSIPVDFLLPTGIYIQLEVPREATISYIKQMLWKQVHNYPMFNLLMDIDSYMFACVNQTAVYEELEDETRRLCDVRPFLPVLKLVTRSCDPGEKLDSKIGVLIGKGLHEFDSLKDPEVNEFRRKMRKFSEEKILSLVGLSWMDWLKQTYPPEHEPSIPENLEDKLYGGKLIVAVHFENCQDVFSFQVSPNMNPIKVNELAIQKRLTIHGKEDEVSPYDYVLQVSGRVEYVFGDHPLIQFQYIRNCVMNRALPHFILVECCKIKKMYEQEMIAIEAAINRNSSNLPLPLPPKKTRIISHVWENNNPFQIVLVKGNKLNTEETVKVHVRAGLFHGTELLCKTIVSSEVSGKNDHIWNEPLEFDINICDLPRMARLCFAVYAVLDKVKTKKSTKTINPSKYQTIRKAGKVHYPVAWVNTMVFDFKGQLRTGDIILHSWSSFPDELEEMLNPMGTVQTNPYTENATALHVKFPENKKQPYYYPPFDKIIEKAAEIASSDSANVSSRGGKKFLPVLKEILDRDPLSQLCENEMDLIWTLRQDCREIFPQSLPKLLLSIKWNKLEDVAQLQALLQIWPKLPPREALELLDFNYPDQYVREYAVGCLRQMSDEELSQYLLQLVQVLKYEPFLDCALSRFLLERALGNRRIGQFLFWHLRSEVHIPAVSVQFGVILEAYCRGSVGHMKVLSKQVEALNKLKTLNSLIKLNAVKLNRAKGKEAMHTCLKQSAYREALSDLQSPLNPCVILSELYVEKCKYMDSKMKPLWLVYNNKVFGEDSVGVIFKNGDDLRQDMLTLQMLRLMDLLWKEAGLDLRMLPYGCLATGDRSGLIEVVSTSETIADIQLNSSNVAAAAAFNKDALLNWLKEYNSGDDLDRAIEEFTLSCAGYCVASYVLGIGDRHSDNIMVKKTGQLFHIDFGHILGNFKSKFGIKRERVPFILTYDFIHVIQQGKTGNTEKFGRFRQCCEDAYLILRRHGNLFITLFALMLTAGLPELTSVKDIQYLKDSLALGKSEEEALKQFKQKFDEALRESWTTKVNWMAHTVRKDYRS
Sequence of Phosphatidylinositol 4,5-bisphosphate 3-kinase catalytic subunit alpha isoform (P42336 whole entry, canonical isoform): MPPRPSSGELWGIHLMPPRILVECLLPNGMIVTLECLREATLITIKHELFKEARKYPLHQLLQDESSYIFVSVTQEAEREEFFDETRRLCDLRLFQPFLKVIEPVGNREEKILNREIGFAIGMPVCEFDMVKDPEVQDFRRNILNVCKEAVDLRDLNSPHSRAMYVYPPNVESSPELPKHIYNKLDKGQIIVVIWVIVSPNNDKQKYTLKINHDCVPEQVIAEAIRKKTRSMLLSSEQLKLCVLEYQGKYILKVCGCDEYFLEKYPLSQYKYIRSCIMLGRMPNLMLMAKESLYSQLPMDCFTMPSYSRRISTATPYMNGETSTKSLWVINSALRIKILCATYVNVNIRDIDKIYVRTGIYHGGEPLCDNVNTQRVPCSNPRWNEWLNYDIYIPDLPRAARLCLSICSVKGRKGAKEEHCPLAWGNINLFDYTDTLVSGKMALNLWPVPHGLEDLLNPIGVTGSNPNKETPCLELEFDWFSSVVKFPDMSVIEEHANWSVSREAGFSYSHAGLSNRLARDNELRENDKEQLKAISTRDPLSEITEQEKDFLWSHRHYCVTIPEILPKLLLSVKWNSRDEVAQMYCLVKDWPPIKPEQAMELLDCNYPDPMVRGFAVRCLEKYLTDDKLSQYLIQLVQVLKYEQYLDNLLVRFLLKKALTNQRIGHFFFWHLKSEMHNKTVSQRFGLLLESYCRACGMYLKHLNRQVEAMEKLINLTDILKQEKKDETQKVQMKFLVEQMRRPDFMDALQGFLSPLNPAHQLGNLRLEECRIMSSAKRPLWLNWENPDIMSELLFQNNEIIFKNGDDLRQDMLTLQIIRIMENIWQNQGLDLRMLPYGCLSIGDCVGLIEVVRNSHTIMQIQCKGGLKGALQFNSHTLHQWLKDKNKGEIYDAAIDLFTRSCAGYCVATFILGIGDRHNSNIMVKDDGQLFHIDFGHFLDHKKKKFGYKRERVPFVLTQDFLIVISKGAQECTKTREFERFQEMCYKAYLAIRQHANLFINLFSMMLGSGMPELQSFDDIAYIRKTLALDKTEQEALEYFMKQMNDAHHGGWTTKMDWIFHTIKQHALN
Sequence of Phosphatidylinositol 4,5-bisphosphate 3-kinase catalytic subunit gamma isoform (P48736 whole entry, canonical isoform): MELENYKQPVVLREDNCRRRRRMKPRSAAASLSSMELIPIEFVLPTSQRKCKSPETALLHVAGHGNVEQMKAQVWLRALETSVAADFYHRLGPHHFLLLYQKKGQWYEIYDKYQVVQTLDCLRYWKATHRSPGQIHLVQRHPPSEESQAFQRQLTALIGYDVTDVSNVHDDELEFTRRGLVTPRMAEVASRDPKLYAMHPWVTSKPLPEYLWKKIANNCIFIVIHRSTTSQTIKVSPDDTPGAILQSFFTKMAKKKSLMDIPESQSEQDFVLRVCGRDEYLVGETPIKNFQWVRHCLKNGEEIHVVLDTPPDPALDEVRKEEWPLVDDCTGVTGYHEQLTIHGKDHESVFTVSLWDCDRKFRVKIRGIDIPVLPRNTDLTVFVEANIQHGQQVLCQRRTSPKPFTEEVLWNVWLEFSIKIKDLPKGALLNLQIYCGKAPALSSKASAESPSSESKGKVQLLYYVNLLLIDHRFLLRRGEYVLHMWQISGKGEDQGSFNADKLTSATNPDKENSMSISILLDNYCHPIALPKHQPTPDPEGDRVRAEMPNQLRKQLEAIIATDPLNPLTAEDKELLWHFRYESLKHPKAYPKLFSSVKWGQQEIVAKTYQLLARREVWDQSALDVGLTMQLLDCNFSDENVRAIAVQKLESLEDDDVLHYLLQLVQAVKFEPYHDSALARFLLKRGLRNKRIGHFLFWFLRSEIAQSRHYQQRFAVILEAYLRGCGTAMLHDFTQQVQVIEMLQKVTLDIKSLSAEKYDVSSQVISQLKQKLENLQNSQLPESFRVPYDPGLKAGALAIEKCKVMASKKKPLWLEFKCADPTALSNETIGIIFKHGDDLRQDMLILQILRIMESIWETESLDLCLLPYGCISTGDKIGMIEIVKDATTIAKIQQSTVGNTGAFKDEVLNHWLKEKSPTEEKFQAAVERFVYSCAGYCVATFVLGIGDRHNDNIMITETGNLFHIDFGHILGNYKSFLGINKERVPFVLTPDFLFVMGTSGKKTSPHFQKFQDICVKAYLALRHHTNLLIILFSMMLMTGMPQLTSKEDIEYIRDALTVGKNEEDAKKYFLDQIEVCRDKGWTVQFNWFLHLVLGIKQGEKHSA

Compound: NC(=O)c1nc(-c2cccc(O)c2)nc2c1[nH]c(=O)n2C1CCN(Cc2ccccc2)C1 (stereo not given)
- Ki [1]: 316 nM
- IC50 [2]: 316 nM
- hepatocyte CLint at 0.5 µM [3]: 163 µL/min/1e6 cells
- microsomal CLint at 0.5 µM [4]: 133 µL/min/mg
- half-life [5]: 142 min
- Papp B→A [6]: 0.2 ×10⁻⁶ cm/s
- microsomal CLint at 0.5 µM [7]: 70 µL/min/mg
- fraction unbound [8]: 0.032
- Ki [9]: 20 nM
- fraction unbound [10]: 0.033
- fraction unbound [11]: 0.021
- hepatocyte CLint at 0.5 µM [12]: 55 µL/min/1e6 cells
- Activity (HepG2 [13]): inactive
- solubility kinetic [14]: 178 µM (≈ 76.6 µg/mL)
- Ki [15]: 126 nM
- Ki [16]: 5.01 nM
- half-life [17]: > 500 min

Compound: NC(=O)c1nc(-c2cccc3[nH]ncc23)nc2c1[nH]c(=O)n2CCc1ccc(Cl)c(Cl)c1
- Ki [1]: 1580 nM
- Ki [16]: 126 nM

Compound: CN(C)Cc1cccc(-c2nc(C(N)=O)c3[nH]c(=O)n(CCc4ccc(Cl)c(Cl)c4)c3n2)c1
- Ki [1]: ≥ 20000 nM
- Ki [9]: ≥ 20000 nM
- Ki [15]: ≥ 20000 nM
- Ki [16]: ≥ 20000 nM

Compound: CC[C@H](Nc1ncnc2[nH]cnc12)c1nc2cccc(F)c2c(=O)n1-c1ccccc1 [IDELALISIB]
- IC50 [2]: 31.6 nM
- Papp B→A [6]: 23.4 ×10⁻⁶ cm/s
- fraction unbound [8]: 0.031
- fraction unbound [10]: 0.148
- Activity (HepG2 [18]): Active
- fraction unbound [11]: 0.139

Compound: Cc1ccc(O)cc1-c1nc(C(N)=O)c2[nH]c(=O)n(CCc3ccc(Cl)c(Cl)c3)c2n1
- solubility kinetic [14]: 498 µM (≈ 228 µg/mL)

Compound: CC(Cc1ccc(Cl)c(Cl)c1)n1c(=O)[nH]c2c(C(N)=O)nc(-c3cccc(O)c3)nc21 (stereo not given)
- Ki [1]: 398 nM
- IC50 [2]: 100 nM
- hepatocyte CLint at 0.5 µM [3]: 120 µL/min/1e6 cells
- microsomal CLint at 0.5 µM [4]: 50 µL/min/mg
- half-life [5]: > 500 min
- microsomal CLint at 0.5 µM [7]: 19 µL/min/mg
- fraction unbound [8]: < 0.01
- Ki [9]: 6.31 nM
- fraction unbound [10]: < 0.01
- fraction unbound [11]: < 0.01
- hepatocyte CLint at 0.5 µM [12]: 79 µL/min/1e6 cells
- Activity (HepG2 [13]): inactive
- solubility kinetic [14]: 414 µM (≈ 190 µg/mL)
- Ki [15]: 200 nM
- Ki [16]: 3.16 nM
- half-life [17]: > 500 min

Compound: NC(=O)c1nc(-c2cccc(O)c2)nc2c1[nH]c(=O)n2-c1ccc(N2CCOCC2)cc1
- Ki [1]: 126 nM
- Ki [9]: 158 nM
- Ki [15]: 39.8 nM
- Ki [16]: 50.1 nM

Compound: NC(=O)c1nc(-c2cccc(O)c2)nc2c1[nH]c(=O)n2CC1CCOC1 (stereo not given)
- Ki [1]: 251 nM
- Ki [9]: 316 nM
- Ki [15]: 39.8 nM
- Ki [16]: 39.8 nM

Compound: NC(=O)c1nc(-c2cccc(O)c2)nc2c1[nH]c(=O)n2CC1CCS(=O)(=O)C1 (stereo not given)
- Ki [1]: 1260 nM
- Ki [9]: 631 nM
- Ki [15]: 100 nM
- Ki [16]: > 20000 nM

Compound: CC(C)c1ccc(CCn2c(=O)[nH]c3c(C(N)=O)nc(-c4cccc(O)c4)nc32)cc1
- Kinetic_solubility [14]: Not Active

Compound: NC(=O)c1nc(-c2cccc(O)c2)nc2c1[nH]c(=O)n2CCc1cccs1
- solubility kinetic [14]: 405 µM (≈ 154 µg/mL)

Compound: NC(=O)c1nc(-c2cccc(O)c2)nc2c1[nH]c(=O)n2CCc1ccc2c(c1)OCO2
- Kinetic_solubility [14]: Not Active

Compound: NC(=O)c1nc(-c2cccc(O)c2)nc2c1[nH]c(=O)n2C1CC1c1ccccc1 (stereo not given)
- Ki [1]: 158 nM
- Ki [9]: 158 nM
- pIC50 (THP-1): inactive
- Kinetic_solubility [14]: Not Active
- Ki [15]: 158 nM
- Ki [16]: 63.1 nM

Compound: NC(=O)c1nc(-c2cccc(O)c2)nc2c1[nH]c(=O)n2CCc1ccc(Cl)c(Cl)c1
- solubility kinetic [14]: 62 µM (≈ 27.5 µg/mL)

Compound: NC(=O)c1nc(-c2cccc3[nH]ccc23)nc2c1[nH]c(=O)n2CCc1ccc(Cl)c(Cl)c1
- Ki [15]: ≥ 20000 nM

Compound: NC(=O)c1nc(-c2cccc(O)c2)nc2c1[nH]c(=O)n2-c1ccc(F)cc1
- Ki [15]: 79.4 nM
